{"source": "patent US20100179225A1", "about": "“POI Prevention” (CYTOKINE PHARMASCIENCES, INC., priority 2008, published 2010)", "test_system": "ED1 positive cells", "experiment": "ED1 positive cell (monocyte/macrophage) infiltration into graft muscularis after small intestinal transplantation", "type": "in vivo, Lewis rats", "conditions": "1 mg/kg i.v.; 18 h after reperfusion", "protocol": "Syngeneic orthotopic small intestinal transplantation was performed in Lewis rats as previously described (Schwarz N T, Nakao A, Nalesnik M A, Kalff J C, Murase N, Bauer A J. Protective effects of ex vivo graft radiation and tacrolimus on syngeneic transplanted rat small bowel motility. Surgery 2002; 131: 413-423). […] Then the graft vascular bed was perfused with chilled UW solution (University of Wisconcin) and the intestinal lumen was irrigated with 50 ml cold 0.9% NaCl solution containing […]. neomycin sulfate (Uro Nebacetin N, Nycomed, Germany). The graft was stored in cold UW solution during the preparation of the recipient. An end-to-side anastomosis between the graft aorta and the recipient infra-renal aorta, and between the graft vein and recipient vena cava, was performed. […]\nED1 and MPO+-cells were counted under a microscope (TE-2000, Nikon, Duesseldorf, Germany) in 5 randomly chosen areas in each specimen.\nIn order to evaluate cell populations which are known to be associated with inflammation processes and to initiate immunological processes within the muscularis, leukocyte infiltrates were evaluated after 18 h by MPO histochemistry (polymorphonuclear neutrophils) and ED1 immunohistochemistry (monocytes and passenger macrophages). […]", "data": [{"compound": "C/C(=N\\N=C(N)N)c1cc(NC(=O)CCCCCCCCC(=O)Nc2cc(/C(C)=N/N=C(N)N)cc(/C(C)=N/N=C(N)N)c2)cc(/C(C)=N/N=C(N)N)c1.CS(=O)(=O)O.CS(=O)(=O)O.CS(=O)(=O)O.CS(=O)(=O)O", "note": "[CPSI-2364]", "values": [{"measurement": "ED1 positive cells in muscularis", "result": "54.8 cells/field of view (magnification 200×)"}]}]}
